In patent US20040053966A1, “Chemical derivatives and their application as antitelomerase agent” (Aventis Pharms S.A., priority 1999, published 2004):
Counter-ions that a name gives are not always drawn. Like-named read-outs stand apart in the source and are kept apart here.

Assays:
[1] = test system: human telomerase (HL60 cell extract); assay: Antitelomerase activity, TRAP (extension of oligonucleotide TS and PCR amplification); assay type: biochemical; conditions: telomerase extract from HL60 cells
[2] = test system: G-quadruplex of oligonucleotide GGGTTAGGGTTAGGGTTAGGG (3.5 repeats of the human telomeric motif); assay: G-quadruplex stabilizing activity, fluorescence Tm (FAM+DABCYL oligonucleotide); assay type: binding; conditions: test product 1 μM, oligonucleotide 0.2 μM, 0.1 M LiCl, 10 mM cacodylate pH 7.6; reference without product 44° C.
Source text: The G-quadruplex stabilizing activity may be determined by a method using the formation of a complex with fluorescein of which the experimental protocol is described below. Oligonucleotides […] The oligonucleotide FAM+DABCYL carries the catalogue reference OL-0371-0802. It has the sequence: […] The fluorescein is attached to the 5' end, the DABCYL to the 3' end, by the chemical arms described by Eurogentec. The concentration of the samples is checked by spectrophotometry, recording the absorbance spectrum between 220 and 700 nm and using the molar extinction coefficient provided by the supplier. Buffers All the experiments were carried out in a 10 mM sodium cacodylate buffer pH 7.6 containing 0.1 M lithium chloride (or sodium chloride). The absence of fluorescent contamination in the buffer was checked beforehand. The fluorescent oligonucleotide is added at the final concentration of 0.2 μM. Study of Fluorescence All the measurements of fluorescence were carried out on a Spex Fluorolog DMlB apparatus, using an excitation line width of 1.8 nm and an emission line width of 4.5 nm. The samples are placed in a microquartz cuvette of 0.2×1 cm. The temperature of the sample is controlled by an external water bath. The oligonucleotide alone was analysed at 20, 30, 40, 50, 60, 70 and 80° C. The emission spectra are recorded using an excitation wavelength of 470 nm. The excitation spectra are recorded using either 515 nm or 588 nm as emission wavelength. The spectra are corrected for the response of the instrument by reference curves. A high extinction (80-90%) of the fluorescence of fluorescein at room temperature is observed, in agreement with an intramolecular folding of the oligonucleotide at 20° C. in the form of a G-quadruplex, which induces juxtaposition of its [NT] ends which are respectively linked to fluorescein and to DABCYL. This juxtaposition causes an already-described phenomenon of extinction of fluorescence which is used for “molecular beacons”. Fluorescence Tm: […] The samples are then allowed to incubate for at least 1 hour at 20° C. before each measurement. The use of longer incubation times (up to 24 hours) has no influence on the result obtained. Each experiment allows the measurement of only one sample. The latter is first incubated at an initial temperature of 20° C., heated to 80° C. over 38 minutes, left for 5 minutes at 80° C. and then cooled to 20° C. over 62 minutes. During this time, the fluorescence is measured simultaneously at two emission wavelengths (515 nm and 588 nm) using 470 nm as excitation wavelength. A measurement is carried out every 30 seconds. The temperature of the water bath is recorded in parallel, and the fluorescence profile as a function of the temperature is reconstituted from these values. The fluorescence profiles are then normalized between 20° C. and 80° C., and the temperature for which the intensity of emission at 515 nm is the mean of those at high and low temperature is called Tm. Under these conditions, the Tm of the reference sample without addition of product is 44° C. in a lithium chloride buffer. This temperature is increased to more than 55° C. in a sodium chloride buffer. The addition of a G-quadruplex-stabilizing compound induces an increase in the Tm. This increase is judged to be significant if it is greater than […].

A549 cells = assay: Cytotoxic activity on human tumour line A549 (neutral red); assay type: cell-based; conditions: 96 hours incubation, read-out: Cytotox. A549 IC50
Method: The Cytotoxic Biological Activity on Human Tumour Lines is Determined According to the Following Experimental Protocol:
The cells at the exponential growth phase are trypsinized, washed in 1× PBS and are inoculated in 96-well microplates (Costar) in an amount of 4×10^4 cells/ml for A549 and of 1.5×10^4 cells/ml (0.2 ml/well) and then incubated for 96 hours in the presence of variable concentrations of product to be studied (10, 1, 0.1 and 0.01 μg/ml, each point in quadruplicate). 16 hours before the end of the incubation, 0.02% final of neutral red is added to each well. At the end of the incubation, the cells are washed with 1× PBS and lysed with 1% sodium lauryl sulphate. The cellular incorporation of the dye, which reflects cellular growth, is evaluated by spectrophotometry at a wavelength of 540 nm for each sample with the aid of a Dynatech MR5000 reading apparatus.
(compound value−blank value/cell control value−blank value)×100.

IC50 [1] [µM]	Structure (SMILES)	FLUORESCENCE Tm [2] [° ° C.]	IC50 (A549 cells; Homo sapiens, A549, 96 h) [µM]	IC50 (A549 cells) [µM]	G4 Tm [2] [°C]
0.25	Cc1cc(N)c2cc(Nc3nc(N)nc(Nc4ccc5c(c4)c(N)cc(C)[n+]5C)n3)ccc2[n+]1C [Example 1, 2-amino-bis-4,6-[(1′-methyl-4′-amino-6′-quinaldinio)amino]triazine dichloride]	–	–	–	–
0.056	CC[n+]1c(C)cc(N)c2cc(Nc3nc(N)nc(Nc4ccc5c(c4)c(N)cc(C)[n+]5CC)n3)ccc21 [Example 2, 2-amino-bis-4,6-[(1′-ethyl-4′-amino-6′-quinaldinio)amino]triazine dichloride]	48	4.7	–	–
0.22	Cc1cc(N)c2cc(Nc3nc(Nc4ccc5c(c4)c(N)cc(C)[n+]5C)nc(N(C)C)n3)ccc2[n+]1C [Example 3, 2-dimethylamino-bis-4,6-[(1′-methyl-4′-amino-6′-quinaldinio)amino]triazine dichloride]	52	–	–	–
0.51	CNc1nc(Nc2ccc3nc(C)cc(N)c3c2)nc(Nc2ccc3nc(C)cc(N)c3c2)n1 [Example 4, 2-methylamino-bis-4,6-[(4′-amino-6′-quinaldinyl)amino]triazine trihydrochloride]	48	3.1	–	–
0.13	C[n+]1cccc2cc(Nc3nc(N)nc(Nc4ccc5c(ccc[n+]5C)c4)n3)ccc21 [Example 5, 2-amino-bis-4,6-[(1′-methyl-6′-quinolinio)amino]triazine dichloride]	57	–	–	–
0.3	CNc1nc(Nc2ccc3nc(C)cc(NC)c3c2)nc(Nc2ccc3nc(C)cc(NC)c3c2)n1 [Example 6, 2-methylamino-bis-4,6-[(4′-methylamino-6′-quinaldinyl)amino]triazine dichloride trihydrochloride]	44	1.9	–	–
0.89	C[n+]1c2ccccc2c(N)c2cc(Nc3nc(N)nc(Nc4ccc5c(c4)c(N)c4ccccc4[n+]5C)n3)ccc21 [Example 7, 2-amino-bis-4,6-[(9′-amino-10′-methyl-2′-acridinio)amino]triazine dichloride hydrochloride]	55	4.9	–	–
0.051	Cc1cc(N)c2cc(Nc3nc(N)nc(Nc4ccc5nc(C)cc(N)c5c4)n3)ccc2n1 [Example 8, 2-amino-bis-4,6-[(4′-amino-6′-quinaldinyl)amino]triazine trihydrochloride]	–	9.1	–	–
0.74	N=C(N)c1ccc(Nc2nc(N)nc(Nc3ccc(C(=N)N)cc3)n2)cc1 [Example 9, 2-Amino-bis-4,6-(p-amidinoanilino)triazine trihydrochloride]	–	0.53	–	–
0.24	CSc1nc(Nc2ccc3c(c2)c(N)cc(C)[n+]3C)nc(Nc2ccc3c(c2)c(N)cc(C)[n+]3C)n1 [Example 10, 2-methylthio-bis-4,6-[(1′-methyl-4′-amino-6′-quinaldinio)amino]triazine dichloride]	–	3.6	–	–
3	Cc1cc(N(C)C)c2cc(Nc3nc(Cl)nc(Nc4ccc5nc(C)cc(N(C)C)c5c4)n3)ccc2n1 [Example 11, 2-chloro-bis-4,6-[(4′-dimethylamino-6′-quinaldinyl)amino]triazine dihydrochloride dihydrate]	57	5.14	–	–
0.041	CSc1nc(Nc2ccc3nc(C)cc(N(C)C)c3c2)nc(Nc2ccc3nc(C)cc(N(C)C)c3c2)n1 [Example 12, 2-methylthio-bis-4,6-[(4′-dimethylamino-6′-quinaldinyl)amino]triazine hydrate]	70	–	–	–
0.72	Cc1cc(N)c2cc(NC(=O)Nc3ccc4nc(C)cc(N)c4c3)ccc2n1 [Example 13, N,N′-(4-amino-6-quinaldinyl)urea dihydrochloride]	–	–	–	–
–	C[n+]1ccc(NCCCCCNc2cc[n+](C)c3cc(Cl)ccc23)c2ccc(Cl)cc21 [Example 14, N^1,N^5-bis (7-chloro-1-methyl4-quinolinio)pentane-1,5-diamine diiodide]	–	6.5	–	–
0.49	Cc1cc(N)c2cc(Nc3ccnc(Nc4ccc5nc(C)cc(N)c5c4)n3)ccc2n1.Cl.Cl.Cl.O.O.O.O.O [Example 15, bis-2,4-[(4′-amino-6′-quinaldinyl)amino]pyrimidine trihydrochloride pentahydrate]	53	–	8.7	–
–	Cc1cc(N)c2cc(NC(=N)NC(=N)Nc3ccc4nc(C)cc(N)c4c3)ccc2n1 [Example 16, 1,5-(4′-amino-6′-quinaldinyl)-biguanide trihydrochloride dihydrate]	52	5.8	–	–
0.049	CSc1nc(Nc2ccc3nc(C)cc(N)c3c2)nc(Nc2ccc3nc(C)cc(N)c3c2)n1 [Example 17-1]	–	1.6	–	57
3.9	COc1cc(C)nc2ccc(Nc3nc(Nc4ccc5nc(C)cc(OC)c5c4)nc(SC)n3)cc12 [Example 17-3]	–	3.2	–	–
2.3	COc1cc(C)nc2ccc(Nc3nc(Nc4ccc5nc(C)cc(N)c5c4)nc(SC)n3)cc12 [Example 18-2]	–	–	–	49
0.34	CSc1nc(Nc2ccc3nc(C)cc(N)c3c2)nc(Nc2ccc3nc(C)cc(N(C)C)c3c2)n1 [Example 18-3]	–	10	–	57
2.2	CSc1nc(Nc2ccc3nc(C)cc(C)c3c2)nc(Nc2ccc3nc(C)cc(N)c3c2)n1 [Example 18-4]	–	–	–	50
3.4	COc1ccc2nccc(Nc3nc(Nc4ccc5nc(C)cc(N)c5c4)nc(SC)n3)c2c1 [Example 18-9]	–	9.5	–	51
2.8	CCc1cc(Nc2nc(Nc3ccc4nc(C)cc(N)c4c3)nc(SC)n2)ccn1 [Example 18-12]	–	–	–	–
3.4	CSc1nc(Nc2ccc3nc(C)ccc3c2)nc(Nc2ccc3nc(C)cc(N)c3c2)n1 [Example 18-13]	–	–	–	–
2.5	CCN(CC)c1nc(Nc2ccncc2)nc(Nc2ccc3nc(C)cc(N)c3c2)n1 [Example 19-2]	–	–	–	53

Structure (SMILES)	IC50 [1] [µM]	FLUORESCENCE Tm [2] [° ° C.]	IC50 (A549 cells; Homo sapiens, A549, 96 h) [µM]	IC50 (A549 cells) [µM]	G4 Tm [2] [°C]
CSc1nc(Nc2ccc3c(c2)c(=N)cc(C)n3C)nc(Nc2ccc3c(c2)c(=N)cc(C)n3C)n1 [Example 17-2]	0.95	–	6.1	–	–
CSc1nc(Nc2ccc3nc(C)cc(N)c3c2)nc(N(C)c2ccc3ncccc3c2)n1 [Example 18-1]	3.5	–	–	–	47
CSc1nc(Nc2ccc3ncccc3c2)nc(Nc2ccc3nc(C)cc(N)c3c2)n1 [Example 18-5]	3.4	–	–	–	47
CSc1nc(Nc2ccc(C#N)cc2)nc(Nc2ccc3nc(C)cc(N)c3c2)n1 [Example 18-7]	3.3	–	8	–	51
CSc1nc(Nc2ccc3nc(C)cc(N)c3c2)nc(Nc2ccnc3ccccc23)n1 [Example 18-8]	3.4	–	–	–	49
CSc1nc(Nc2ccc3nc[nH]c3c2)nc(Nc2ccc3nc(C)cc(N)c3c2)n1 [Example 18-10]	3.3	–	10	–	49
